Measurements published in PubChem BioAssay (NCI).
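Dose response: 5 concentrations. Exposure: 48 h. Format: 96-well plates. Endpoint: linear interpolation; highest concentration if not reached. The concentration for full growth arrest is given as TGI.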 Where a SMILES comes first, the peptide text is derived from it. The star is where a group is joined. OSu = O=C1CCC(=O)N1O*

Experiments:
Assay in all cases: growth of human tumour cells (NCI), 48 h
SNB-19 CNS = test system: SNB-19 CNS
RPMI-8226 leukemia = test system: RPMI-8226 leukemia
HCT-15 colon = test system: HCT-15 colon
SF-295 CNS = test system: SF-295 CNS
A498 renal = test system: A498 renal
HCT-116 colon = test system: HCT-116 colon
K-562 leukemia = test system: K-562 leukemia
UO-31 renal = test system: UO-31 renal
NCI/ADR-RES ovarian = test system: NCI/ADR-RES ovarian
DU-145 prostate = test system: DU-145 prostate

SMILES	TGI (SNB-19 CNS) [µM]	TGI (RPMI-8226 leukemia) [µM]	TGI (HCT-15 colon) [µM]	TGI (SF-295 CNS) [µM]	TGI (A498 renal) [µM]	TGI (HCT-116 colon) [µM]	TGI (K-562 leukemia) [µM]	TGI (UO-31 renal) [µM]	TGI (NCI/ADR-RES ovarian) [µM]	TGI (DU-145 prostate) [µM]
CN1NC(c2ccccc2)=C(C#N)C(=O)CC1c1ccc(Br)cc1 (centres undefined)	> 100	> 100	> 100	91.2	> 100	> 100	–	–	–	–
Cc1ccc(C(=O)N/N=C2/C(=O)c3c4ccccc4cc4cccc2c34)cc1	> 89.8	> 87.1	> 100	43.2	> 100	27.3	> 100	> 100	> 91.2	–
C=CCN(CCN(CC=C)S(=O)(=O)c1ccc(C)cc1)S(=O)(=O)c1ccc(C)cc1	> 100	–	> 100	> 100	> 100	> 100	> 100	> 100	> 100	> 100
CC[n+]1c(/C=C/c2ccc(N(CCCl)CCCl)cc2)ccc2cc(I)ccc21	2.35	1.72	28.1	5.76	13.1	–	1.6	14.2	–	–
CCOC1CCN(C(=O)c2ccccc2)O1 (centres undefined)	> 10	> 10	> 10	> 10	–	> 10	> 10	> 10	> 10	> 10
Cc1ccc(/S(Cc2ccccc2)=N\S(=O)(=O)c2ccc(C)cc2)cc1 (centres undefined)	> 100	> 100	> 100	> 100	–	> 100	> 100	> 100	> 100	> 100
OC12c3ccccc3C1CCCCCC21OCCCO1 (centres undefined)	> 100	> 100	> 100	> 100	> 100	> 100	> 100	> 100	–	–
C=CCn1c(=N)/c(=C(\N)O)s/c1=C1/SC(=S)N(c2ccc(C)cc2)C1=O	> 100	> 100	–	> 100	> 100	> 100	> 100	> 100	–	–
CCOC(=O)/C=C(/C(=O)OCC)n1ccc(=O)n(Cc2cnnn2CCCCOC(C)=O)c1=O	> 100	> 100	–	> 100	–	> 100	> 100	> 100	> 100	> 100
C[C@H]1O[C@@H](C(C)(C)C)OC(=O)[C@@H]1C(OC(=O)c1ccccc1)c1cccc2ccccc12 (some centres undefined)	> 100	> 100	> 100	> 100	–	> 100	> 100	> 100	> 100	–
O=C(c1ccco1)N(C(=S)N1CCN(c2ccccn2)CC1)c1ccccc1	> 100	> 100	> 100	> 100	–	> 100	> 100	> 100	–	–
O=C(O)c1ccc(Nc2nc3nn(Cc4ccccc4)cc3c(=O)s2)cc1	> 100	> 100	> 100	> 100	–	> 100	> 100	> 100	–	–
O=C1/C(=C/c2ccccc2)CCCc2ccccc21	29.3	> 100	32.3	35.9	–	30.7	49.4	31.9	40.5	54.7
CCCCCCCCCC(=O)NC(Cc1ccc(O)cc1)C(=O)NCCCNCCCCNCCCNC(=O)[C@@H](N)CCCN=C(N)N (some centres undefined)	> 100	> 100	> 100	85.6	–	> 100	> 100	> 100	–	–
C/C(O)=C(\C=NC(=S)c1ccncc1)C(=O)Nc1ccccc1C	> 100	–	> 100	> 100	> 100	> 100	–	> 100	> 100	> 100
O=c1[nH]c(=O)n([C@@H]2O[C@H](CO)[C@@H](O)[C@@H]2F)cc1I	> 100	–	> 100	> 100	> 100	> 100	> 100	> 100	> 100	> 100
OC12CCC3(O)c4ccccc4C3C1c1ccccc12 (centres undefined)	> 100	> 100	> 100	> 100	–	> 100	> 100	> 100	–	–
COC(=O)[C@H](Cc1c[nH]c2ccccc12)NC(=O)c1ccccc1I	> 100	–	> 100	> 100	37.4	> 100	> 100	33.4	> 100	53.9

SMILES	TGI (SNB-19 CNS) [µM]	TGI (RPMI-8226 leukemia) [µM]	TGI (HCT-15 colon) [µM]	TGI (SF-295 CNS) [µM]	TGI (A498 renal) [µM]	TGI (HCT-116 colon) [µM]	TGI (K-562 leukemia) [µM]	TGI (UO-31 renal) [µM]	TGI (NCI/ADR-RES ovarian) [µM]	TGI (DU-145 prostate) [µM]
CC(=O)n1nc(-c2ccc3ccccc3c2)nc1C	–	–	> 100	> 100	–	> 100	> 100	> 100	> 100	> 100
Cc1nc(Nc2ccc(Cl)c(Cl)c2)sc1C(=O)/C=C/c1ccc2c(c1)OCO2	51.9	45.9	–	45.6	47.8	49.4	89.9	33.7	> 100	–
C=CCCC(=O)C(=[N+]=[N-])C(=O)CCC(=O)c1ccccc1	> 10	> 10	> 10	> 10	> 10	–	> 10	> 10	–	> 10
COCOc1cc(OC)ccc1C/C(=N/O)C(=O)OC	> 100	–	> 100	> 100	–	> 100	> 100	> 100	> 100	> 100
Cc1cn(C2OC(CO)C(O)C2F)c(=O)[nH]c1=O (centres undefined)	> 100	–	> 100	> 100	> 100	> 100	> 100	> 100	> 100	> 100
O=C1C(Cl)=C(NCCF)C(=O)c2ncccc21	2.99	> 10	4.87	3.21	> 10	3.51	2.82	2.6	–	2.99
COc1ccc(/C(Cl)=C(\C=O)c2ccc(Cl)cc2)cc1OC	> 100	62.9	> 100	14.4	54.3	33.3	71.3	28	–	–
COc1ccc2oc(C(=O)N3CC(CCl)c4ccc(N)cc43)cc2c1 (centres undefined)	19.5	–	3.18	> 100	0.865	0.576	> 63.4	0.617	0.758	1.62
C[n+]1cn(-c2nc3ccccc3nc2[N-]S(=O)(=O)c2ccccc2)c2ccccc21	> 100	> 100	> 100	> 100	–	> 100	> 100	> 100	> 100	–
CC(=O)NC1(C)C(C)C2CC1C(C)C2(C)C (centres undefined)	> 100	–	–	> 100	> 100	> 100	> 100	> 100	–	> 100
CC12CCC(CC1(Cl)Cl)C2 (centres undefined)	> 100	> 100	> 100	> 100	–	–	> 100	> 100	> 100	–
NCCNC(=O)CN(CC(=O)O)C1CCCCC1N(CC(=O)O)CC(=O)O (centres undefined)	> 100	–	> 100	> 100	> 100	> 100	> 100	> 100	> 100	> 100
Cc1ccc(SCC(OCn2cnc3c(Cl)nc(N)nc32)[C@H](C)F)cc1 (some centres undefined)	> 100	> 100	> 100	> 100	–	> 100	–	> 100	> 100	> 100
CC(=O)O[C@H]1C(=O)[C@@]2(C)[C@H]([C@H](OC(=O)c3ccccc3)[C@]3(O)C[C@H](OC(=O)[C@H](O)[C@@H](NC(=O)c4ccc(N(C)C)cc4)c4ccccc4)C(C)=C1C3(C)C)[C@]1(OC(C)=O)CO[C@@H]1C[C@@H]2O	> 50	0.00795	> 50	> 50	> 50	> 50	–	> 50	16.7	–
Cc1ccc(S(=O)(=O)NC(=O)NC(CCC(N)=O)C(=O)O)cc1 (centres undefined)	> 100	> 100	> 100	> 100	–	> 100	> 100	> 100	> 100	> 100
COC(=O)CNC(=O)CCC(C)[C@H]1CCC2C3C(C[C@H](OC(C)=O)[C@@]21C)[C@@]1(C)CCC2(C[C@H]1C[C@H]3OC(C)=O)OOC1(CCCCC1)OO2 (some centres undefined)	17.8	3.91	8.65	18.4	34.4	6.25	9.51	3.3	4.7	–
NCCCCC(NC(=O)C(N)Cc1ccc(O)cc1)C(=O)NC(Cc1ccc(O)cc1)C(=O)NC(CCCCN)C(=O)ON1C(=O)CCC1=O (centres undefined) (H-YKYK-OSu; configuration not given here)	> 100	> 100	> 100	–	> 100	> 100	> 100	> 100	–	–
COC(=O)C1(O)C(c2ccccc2)NC2(C)CCCC21 (centres undefined)	> 100	–	> 100	> 100	> 100	> 100	–	> 100	> 100	> 100
